Measurements published in PubChem BioAssay (NCI).
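Five concentrations, 48 hours, 96-well plates. TGI: total growth inhibition.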

Assays:
Assay in all cases: NCI-60 cell line screen, 48 h
OVCAR-5 ovarian = system: OVCAR-5 ovarian
HOP-62 NSCLC = system: HOP-62 NSCLC
SW-620 colon = system: SW-620 colon
MDA-N = system: MDA-N
786-0 renal = system: 786-0 renal
IGROV1 ovarian = system: IGROV1 ovarian
HS 578T breast = system: HS 578T breast
HCT-116 colon = system: HCT-116 colon
BT-549 breast = system: BT-549 breast
EKVX NSCLC = system: EKVX NSCLC
TK-10 renal = system: TK-10 renal
MALME-3M melanoma = system: MALME-3M melanoma
K-562 leukemia = system: K-562 leukemia
OVCAR-8 ovarian = system: OVCAR-8 ovarian
ACHN renal = system: ACHN renal
MOLT-4 leukemia = system: MOLT-4 leukemia
SNB-75 CNS = system: SNB-75 CNS
HT29 colon = system: HT29 colon
DU-145 prostate = system: DU-145 prostate
OVCAR-4 ovarian = system: OVCAR-4 ovarian
U251 CNS = system: U251 CNS
NCI-H23 lung = system: NCI-H23 lung
LOX IMVI melanoma = system: LOX IMVI melanoma
SF-295 CNS = system: SF-295 CNS
UO-31 renal = system: UO-31 renal
NCI-H522 lung = system: NCI-H522 lung
SN12C renal = system: SN12C renal
COLO 205 colon = system: COLO 205 colon
NCI-H226 lung = system: NCI-H226 lung
KM12 colon = system: KM12 colon
NCI-H460 lung = system: NCI-H460 lung
HOP-92 NSCLC = system: HOP-92 NSCLC
RXF 393 renal = system: RXF 393 renal
OVCAR-3 ovarian = system: OVCAR-3 ovarian
NCI/ADR-RES ovarian = system: NCI/ADR-RES ovarian
A498 renal = system: A498 renal
SK-MEL-5 melanoma = system: SK-MEL-5 melanoma
HL-60(TB) leukemia = system: HL-60(TB) leukemia
T-47D breast = system: T-47D breast
PC-3 prostate = system: PC-3 prostate
MCF7 breast = system: MCF7 breast
SR leukemia = system: SR leukemia
CAKI-1 renal = system: CAKI-1 renal
SK-MEL-28 melanoma = system: SK-MEL-28 melanoma
M14 melanoma = system: M14 melanoma
A549 NSCLC = system: A549 NSCLC
SNB-19 CNS = system: SNB-19 CNS
HCC-2998 colon = system: HCC-2998 colon
SF-539 CNS = system: SF-539 CNS
UACC-257 melanoma = system: UACC-257 melanoma
RPMI-8226 leukemia = system: RPMI-8226 leukemia
SK-MEL-2 melanoma = system: SK-MEL-2 melanoma
HCT-15 colon = system: HCT-15 colon
CCRF-CEM leukemia = system: CCRF-CEM leukemia
SF-268 CNS = system: SF-268 CNS
SK-OV-3 ovarian = system: SK-OV-3 ovarian
MDA-MB-231 breast = system: MDA-MB-231 breast
MDA-MB-435 = system: MDA-MB-435
UACC-62 melanoma = system: UACC-62 melanoma

How did the TGI (OVCAR-5 ovarian) turn out when `Cc1cc(S(N)(=O)=O)c(SCc2nc(N)nc(N(C)C)n2)cc1Cl` was run?
Its TGI is over 10 µM.

And the TGI (HOP-62 NSCLC)?
Its TGI is over 10 µM.

What about the TGI (SW-620 colon) of the same compound?
The TGI was over 10 µM.

And the TGI (MDA-N)?
Its TGI is over 10 µM.

What about the TGI (786-0 renal) of the same compound?
The TGI was over 10 µM.

What about the TGI (IGROV1 ovarian) of the same compound?
Its TGI is over 10 µM.

And the TGI (HS 578T breast)?
Its TGI is over 10 µM.

And the TGI (HCT-116 colon)?
The TGI was over 10 µM.

What about the TGI (BT-549 breast) of the same compound?
The TGI was over 10 µM.

What about the TGI (EKVX NSCLC) of the same compound?
Its TGI is over 10 µM.

What about the TGI (TK-10 renal) of the same compound?
Its TGI is over 10 µM.

And the TGI (MALME-3M melanoma)?
The TGI was over 10 µM.

And the TGI (K-562 leukemia)?
Its TGI is over 10 µM.

What about the TGI (OVCAR-8 ovarian) of the same compound?
Its TGI is over 10 µM.

And the TGI (ACHN renal)?
The TGI was over 10 µM.

What about the TGI (MOLT-4 leukemia) of the same compound?
The TGI was over 10 µM.

And the TGI (SNB-75 CNS)?
The TGI was over 10 µM.

What about the TGI (HT29 colon) of the same compound?
The TGI was over 10 µM.

And the TGI (DU-145 prostate)?
The TGI was over 10 µM.

And the TGI (OVCAR-4 ovarian)?
Its TGI is over 10 µM.

What about the TGI (U251 CNS) of the same compound?
Its TGI is over 10 µM.

What about the TGI (NCI-H23 lung) of the same compound?
Its TGI is over 10 µM.

And the TGI (LOX IMVI melanoma)?
The TGI was over 10 µM.

And the TGI (SF-295 CNS)?
The TGI was over 10 µM.

What about the TGI (UO-31 renal) of the same compound?
Its TGI is over 10 µM.

And the TGI (NCI-H522 lung)?
The TGI was over 10 µM.

What about the TGI (SN12C renal) of the same compound?
Its TGI is over 10 µM.

And the TGI (COLO 205 colon)?
Its TGI is over 10 µM.

What about the TGI (NCI-H226 lung) of the same compound?
The TGI was over 10 µM.

And the TGI (KM12 colon)?
Its TGI is over 10 µM.

What about the TGI (NCI-H460 lung) of the same compound?
The TGI was over 10 µM.

And the TGI (HOP-92 NSCLC)?
Its TGI is over 10 µM.

And the TGI (RXF 393 renal)?
The TGI was over 10 µM.

What about the TGI (OVCAR-3 ovarian) of the same compound?
Its TGI is over 10 µM.

And the TGI (NCI/ADR-RES ovarian)?
Its TGI is over 10 µM.

What about the TGI (A498 renal) of the same compound?
The TGI was over 10 µM.

What about the TGI (SK-MEL-5 melanoma) of the same compound?
The TGI was over 10 µM.

And the TGI (HL-60(TB) leukemia)?
Its TGI is over 10 µM.

And the TGI (T-47D breast)?
Its TGI is over 10 µM.

And the TGI (PC-3 prostate)?
The TGI was over 10 µM.

What about the TGI (MCF7 breast) of the same compound?
Its TGI is over 10 µM.

And the TGI (SR leukemia)?
The TGI was over 10 µM.

And the TGI (CAKI-1 renal)?
The TGI was over 10 µM.

And the TGI (SK-MEL-28 melanoma)?
The TGI was over 10 µM.

What about the TGI (M14 melanoma) of the same compound?
Its TGI is over 10 µM.

What about the TGI (A549 NSCLC) of the same compound?
Its TGI is over 10 µM.

What about the TGI (SNB-19 CNS) of the same compound?
The TGI was over 10 µM.

And the TGI (HCC-2998 colon)?
The TGI was over 10 µM.

What about the TGI (SF-539 CNS) of the same compound?
The TGI was over 10 µM.

And the TGI (UACC-257 melanoma)?
The TGI was over 10 µM.

What about the TGI (RPMI-8226 leukemia) of the same compound?
The TGI was over 10 µM.

What about the TGI (SK-MEL-2 melanoma) of the same compound?
Its TGI is over 10 µM.

What about the TGI (HCT-15 colon) of the same compound?
Its TGI is over 10 µM.

And the TGI (CCRF-CEM leukemia)?
The TGI was over 10 µM.

And the TGI (SF-268 CNS)?
Its TGI is over 10 µM.

What about the TGI (SK-OV-3 ovarian) of the same compound?
Its TGI is over 10 µM.

For `CC(=O)N1c2ccccc2C(C)(C)OC1C(Cl)(Cl)Cl` (stereo unspecified), which TGI (OVCAR-5 ovarian) is on record?
Its TGI is over 100 µM.

And the TGI (HOP-62 NSCLC)?
The TGI was over 100 µM.

And the TGI (MDA-MB-231 breast)?
Its TGI is over 100 µM.

What about the TGI (SW-620 colon) of the same compound?
The TGI was over 100 µM.

And the TGI (MDA-N)?
The TGI was 83.1 µM.

What about the TGI (786-0 renal) of the same compound?
The TGI was over 100 µM.

What about the TGI (IGROV1 ovarian) of the same compound?
Its TGI is over 100 µM.

And the TGI (HS 578T breast)?
The TGI was over 100 µM.

And the TGI (HCT-116 colon)?
Its TGI is over 100 µM.

And the TGI (BT-549 breast)?
Its TGI is 81 µM.

What about the TGI (EKVX NSCLC) of the same compound?
Its TGI is over 100 µM.

And the TGI (TK-10 renal)?
Its TGI is over 100 µM.

What about the TGI (MALME-3M melanoma) of the same compound?
Its TGI is over 100 µM.

And the TGI (OVCAR-8 ovarian)?
The TGI was over 100 µM.

And the TGI (ACHN renal)?
The TGI was over 100 µM.

And the TGI (MOLT-4 leukemia)?
The TGI was 35.5 µM.

And the TGI (SNB-75 CNS)?
Its TGI is 71.9 µM.

And the TGI (HT29 colon)?
Its TGI is over 100 µM.

And the TGI (MDA-MB-435)?
Its TGI is over 100 µM.

What about the TGI (DU-145 prostate) of the same compound?
The TGI was over 100 µM.

What about the TGI (OVCAR-4 ovarian) of the same compound?
Its TGI is over 100 µM.

What about the TGI (U251 CNS) of the same compound?
The TGI was over 100 µM.

What about the TGI (NCI-H23 lung) of the same compound?
The TGI was over 100 µM.

What about the TGI (SF-295 CNS) of the same compound?
Its TGI is over 100 µM.

What about the TGI (UO-31 renal) of the same compound?
Its TGI is over 100 µM.

What about the TGI (NCI-H522 lung) of the same compound?
Its TGI is 69.3 µM.

What about the TGI (SN12C renal) of the same compound?
The TGI was over 100 µM.

What about the TGI (COLO 205 colon) of the same compound?
Its TGI is over 100 µM.

What about the TGI (NCI-H226 lung) of the same compound?
The TGI was over 100 µM.

What about the TGI (KM12 colon) of the same compound?
Its TGI is over 100 µM.

What about the TGI (NCI-H460 lung) of the same compound?
Its TGI is over 100 µM.

What about the TGI (HOP-92 NSCLC) of the same compound?
Its TGI is 78.9 µM.

What about the TGI (OVCAR-3 ovarian) of the same compound?
Its TGI is over 100 µM.

And the TGI (NCI/ADR-RES ovarian)?
Its TGI is over 100 µM.

And the TGI (A498 renal)?
Its TGI is over 100 µM.

And the TGI (SK-MEL-5 melanoma)?
The TGI was 53.4 µM.

What about the TGI (HL-60(TB) leukemia) of the same compound?
Its TGI is 36.7 µM.

What about the TGI (T-47D breast) of the same compound?
Its TGI is over 100 µM.

What about the TGI (PC-3 prostate) of the same compound?
The TGI was over 100 µM.

What about the TGI (MCF7 breast) of the same compound?
The TGI was 94.5 µM.

And the TGI (UACC-62 melanoma)?
The TGI was over 100 µM.

What about the TGI (CAKI-1 renal) of the same compound?
Its TGI is over 100 µM.

What about the TGI (SK-MEL-28 melanoma) of the same compound?
Its TGI is over 100 µM.

And the TGI (M14 melanoma)?
The TGI was over 100 µM.

What about the TGI (A549 NSCLC) of the same compound?
The TGI was over 100 µM.

What about the TGI (SNB-19 CNS) of the same compound?
The TGI was over 100 µM.

What about the TGI (HCC-2998 colon) of the same compound?
Its TGI is 74.2 µM.

What about the TGI (SF-539 CNS) of the same compound?
The TGI was over 100 µM.

What about the TGI (UACC-257 melanoma) of the same compound?
The TGI was 84.3 µM.

And the TGI (RPMI-8226 leukemia)?
The TGI was 33.6 µM.

What about the TGI (SK-MEL-2 melanoma) of the same compound?
The TGI was over 100 µM.

What about the TGI (HCT-15 colon) of the same compound?
Its TGI is over 100 µM.

What about the TGI (CCRF-CEM leukemia) of the same compound?
Its TGI is over 100 µM.

And the TGI (SF-268 CNS)?
The TGI was over 100 µM.

What about the TGI (SK-OV-3 ovarian) of the same compound?
The TGI was over 100 µM.
